Reference: patent publication US8367668B2, “Pyridazinone derivatives” (Merck Patent Gesellschaft mit Beschränkter Haftung, priority 2007, dated 2013)

molecular target: T1, Met kinase (Homo sapiens, UniProt P08581); test: Met kinase inhibition (enzyme assay), flashplate method; format: biochemical
T1 construct: 6His (N); purchased Upstate 14-526; host or cells: Sf21 insect cells (S. frugiperda), baculovirus
Description: Measurement of Met Kinase Activity
According to the manufacturer's data (Met, active, upstate, catalogue No. 14-526), Met kinase is expressed for the purposes of protein production in insect cells (Sf21; S. frugiperda) and subsequent affinity-chromatographic purification as “N-terminal 6His-tagged” recombinant human protein in a baculovirus expression vector.
The kinase activity can be measured using various available measurement systems. In the scintillation proximity method (Sorg et al., J. of Biomolecular Screening, 2002, 7, 11-19), the flashplate method or the filter binding test, the radioactive phosphorylation of a protein or peptide as substrate is measured using radioactively labelled ATP (^32P-ATP, ^33P-ATP). In the case of the presence of an inhibitory compound, a reduced radioactive signal, or none at all, can be detected. Furthermore, homogeneous time-resolved fluorescence resonance energy transfer (HTR-FRET) and fluoroescence polarisation (FP) technologies can be used as assay methods (Sills et al., J. of Biomolecular Screening, 2002, 191-214).
Flashplate Method (Met Kinase)
The test plates used are 96-well Flashplate® microtitre plates from Perkin Elmer (Cat. No. SMP200). The components of the kinase reaction described below are pipetted into the assay plate. The Met kinase and the substrate poly Ala-Glu-Lys-Tyr, (pAGLT, 6:2:5:1), are incubated for 3 hrs at room temperature with radioactively labelled ^33P-ATP in the presence and absence of test substances in a total volume of 100 μl. The reaction is terminated using 150 μl of a 60 mM EDTA solution. After incubation for a further 30 min at room temperature, the supernatants are filtered off with suction, and the wells are washed three times with 200 μl of 0.9% NaCl solution each time. The measurement of the bound radioactivity is carried out by means of a scintillation measuring instrument (Topcount NXT, Perkin-Elmer).
The full value used is the inhibitor-free kinase reaction. This should be approximately in the range 6000-9000 cpm. The pharmacological zero value used is staurosporin in a final concentration of 0.1 mM. The inhibitory values (IC50) are determined using the RS1_MTS program.
Kinase reaction conditions per well: • 30 μl of assay buffer • 10 μl of substance to be tested in assay buffer with 10% of DMSO • 10 μl of ATP (final concentration 1 μM cold, 0.35 μCi of ^33P-ATP) • 50 μl of Met kinase/substrate mixture in assay buffer; • (10 ng of enzyme/well, 50 ng of pAGLT/well)
50 mM HEPES • 3 mM magnesium chloride • 3 μM sodium orthovanadate • 3 mM manganese(II) chloride • 1 mM dithiothreitol (DTT)
pH=7.5 (to be set using sodium hydroxide)
60 mM Titriplex III (EDTA)
Met kinase: Upstate, Cat. No. 14-526, Stock 1 μg/10 μl; spec. activity 954 U/mg;
Poly-Ala-Glu-Lys-Tyr, 6:2:5:1: Sigma Cat. No. P1152
Pharmacological Data Met Kinase Inhibitions (Enzyme Assay)

T1 sequence (P08581 974-1390 limits assumed): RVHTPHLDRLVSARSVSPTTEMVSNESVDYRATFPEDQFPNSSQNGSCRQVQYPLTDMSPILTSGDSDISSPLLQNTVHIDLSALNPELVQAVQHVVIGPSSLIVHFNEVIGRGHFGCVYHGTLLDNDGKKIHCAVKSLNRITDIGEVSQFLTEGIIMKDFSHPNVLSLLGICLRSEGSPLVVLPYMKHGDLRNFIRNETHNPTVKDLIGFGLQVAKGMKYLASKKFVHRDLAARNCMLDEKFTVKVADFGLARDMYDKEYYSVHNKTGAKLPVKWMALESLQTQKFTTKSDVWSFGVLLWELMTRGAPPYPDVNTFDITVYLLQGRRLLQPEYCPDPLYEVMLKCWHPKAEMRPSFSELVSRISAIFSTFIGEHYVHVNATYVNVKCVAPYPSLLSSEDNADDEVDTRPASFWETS

SMILES	IC50
CCOC(=O)Nc1cccc(Cn2nc(-c3ccc(CNC(=O)CCN(C)C)cc3)ccc2=O)c1 [A83]	10 to 1000 nM
CCOC(=O)Nc1cccc(Cn2nc(-c3ccc(CNC(=O)CCOC)cc3)ccc2=O)c1 [A84]	10 to 1000 nM
CCOC(=O)Nc1cccc(Cn2nc(-c3ccc(CNC(=O)CO)cc3)ccc2=O)c1 [A85]	10 to 1000 nM
CCOC(=O)Nc1cccc(Cn2nc(-c3ccc(CNC(=O)CN4CCN(C(=O)OC(C)(C)C)CC4)cc3)ccc2=O)c1 [A86]	10 to 1000 nM
CCOC(=O)Nc1cccc(Cn2nc(-c3ccc(CNC(=O)CCN4CCCCC4)cc3)ccc2=O)c1 [A87]	10 to 1000 nM
CCOC(=O)Nc1cccc(Cn2nc(-c3cccc(CNC(=O)CNC(C)=O)c3)ccc2=O)c1 [A93]	10 to 1000 nM
CCOC(=O)Nc1cccc(Cn2nc(-c3cccc(CNC(=O)Cn4ccccc4=O)c3)ccc2=O)c1 [A94]	10 to 1000 nM
CCOC(=O)Nc1cccc(Cn2nc(-c3cccc(CNC(=O)Cn4cnnn4)c3)ccc2=O)c1 [A95]	10 to 1000 nM
CCOC(=O)Nc1cccc(Cn2nc(-c3cccc(CNC(=O)Cc4nnn[nH]4)c3)ccc2=O)c1 [A96]	10 to 1000 nM
CCOC(=O)Nc1cccc(Cn2nc(-c3cccc(CNC(=O)CNC(=O)OC(C)(C)C)c3)ccc2=O)c1 [A97]	10 to 1000 nM
CCOC(=O)Nc1cccc(Cn2nc(-c3cccc(CNC(=O)CN4CCOCC4)c3)ccc2=O)c1 [A98]	10 to 1000 nM
CCOC(=O)Nc1cccc(Cn2nc(-c3cccc(CNC(=O)COC)c3)ccc2=O)c1 [A99]	10 to 1000 nM
CCOC(=O)Nc1cccc(Cn2nc(-c3cccc(CNC(=O)CCOC)c3)ccc2=O)c1 [A100]	10 to 1000 nM
CCOC(=O)Nc1cccc(Cn2nc(-c3cccc(CNC(=O)CO)c3)ccc2=O)c1 [A101]	10 to 1000 nM
CCOC(=O)Nc1cccc(Cn2nc(-c3cccc(CNC(=O)CN(C)C)c3)ccc2=O)c1 [A102]	10 to 1000 nM
CCOC(=O)Nc1cccc(Cn2nc(-c3cccc(CNC(=O)CCN(C)C)c3)ccc2=O)c1 [A103]	10 to 1000 nM
CCOC(=O)Nc1cccc(Cn2nc(-c3cccc(CNC(=O)CCNC=O)c3)ccc2=O)c1 [A104]	10 to 1000 nM
CCOC(=O)Nc1cccc(Cn2nc(-c3cccc(CNC(=O)CCO)c3)ccc2=O)c1 [A105]	10 to 1000 nM
CCOC(=O)Nc1cccc(Cn2nc(-c3cccc(CNC(=O)CN4CCN(C)CC4)c3)ccc2=O)c1 [A106]	10 to 1000 nM
CCOC(=O)Nc1cccc(Cn2nc(-c3cccc(CNC(=O)CCN(CC)CC)c3)ccc2=O)c1 [A107]	10 to 1000 nM
CCOC(=O)Nc1cccc(Cn2nc(-c3cccc(CNC(=O)CCN4CCN(C(=O)OC(C)(C)C)CC4)c3)ccc2=O)c1 [A108]	10 to 1000 nM
CCOC(=O)Nc1cccc(Cn2nc(-c3cccc(CNC(=O)CCN4CCCCC4)c3)ccc2=O)c1 [A109]	10 to 1000 nM
CCOC(=O)Nc1cccc(Cn2nc(-c3cccc(CNC(=O)CN4CCCCC4)c3)ccc2=O)c1 [A110]	10 to 1000 nM
CCOC(=O)Nc1cccc(Cn2nc(-c3cccc(CO)c3)ccc2=O)c1 [A122, ethyl{3-[3-(3-hydroxymethylphenyl)-6-oxo-6H-pyridazin-1-ylmethyl]phenyl}carbamate]	10 to 1000 nM

SMILES	IC50
CCOC(=O)Nc1cccc(Cn2nc(-c3ccc(CO)cc3)ccc2=O)c1 [A123, ethyl{3-[3-(4-hydroxymethylphenyl)-6-oxo-6H-pyridazin-1-ylmethyl]phenyl}carbamate]	10 to 1000 nM
CCOC(=O)Nc1cccc(Cn2nc(-c3ccc(C(=O)NCCCCN)cc3)ccc2=O)c1 [A129, ethyl(3-{3-[4-(4-aminobutylcarbamoyl)phenyl]-6-oxo-6H-pyridazin-1-ylmethyl}phenyl)carbamate]	10 to 1000 nM
CCOC(=O)Nc1cccc(Cn2nc(-c3ccc(C(=O)NCCCN)cc3)ccc2=O)c1 [A130]	10 to 1000 nM
CCOC(=O)Nc1cccc(Cn2nc(-c3ccc(CNC(=O)CCN)cc3)ccc2=O)c1 [A131]	10 to 1000 nM
CCOC(=O)Nc1cccc(Cn2nc(-c3ccc(C(=O)NCCN)cc3)ccc2=O)c1 [A132]	10 to 1000 nM
CCOC(=O)Nc1cccc(Cn2nc(-c3cccc(CNC(=O)CN)c3)ccc2=O)c1 [A133]	10 to 1000 nM
CCOC(=O)Nc1cccc(Cn2nc(-c3ccc(CNC(=O)CN)cc3)ccc2=O)c1 [A134]	10 to 1000 nM
CCOC(=O)Nc1cccc(Cn2nc(-c3cccc(CNC(=O)CCN)c3)ccc2=O)c1 [A135]	10 to 1000 nM
CCOC(=O)Nc1cccc(Cn2nc(-c3cccc(C(=O)NCCCCN)c3)ccc2=O)c1 [A136]	10 to 1000 nM
CCOC(=O)Nc1cccc(Cn2nc(-c3cccc(C(=O)NCCCN)c3)ccc2=O)c1 [A137]	10 to 1000 nM
CCOC(=O)Nc1cccc(Cn2nc(-c3cccc(C(=O)NCCN)c3)ccc2=O)c1 [A138]	10 to 1000 nM
CCOC(=O)Nc1cccc(Cn2nc(-c3cccc(CC(=O)NCCCCN)c3)ccc2=O)c1 [A139]	10 to 1000 nM
CCOC(=O)Nc1cccc(Cn2nc(-c3cccc(CC(=O)NCCCN)c3)ccc2=O)c1 [A140]	10 to 1000 nM
CCOC(=O)Nc1cccc(Cn2nc(-c3cccc(CC(=O)NCCN)c3)ccc2=O)c1 [A141]	10 to 1000 nM
CCOC(=O)Nc1cccc(Cn2nc(-c3ccc(CNC(=O)CCN4CCNCC4)cc3)ccc2=O)c1 [A142]	10 to 1000 nM
CCOC(=O)Nc1cccc(Cn2nc(-c3ccc(CNC(=O)CN4CCNCC4)cc3)ccc2=O)c1 [A143]	10 to 1000 nM
CCOC(=O)Nc1cccc(Cn2nc(-c3cccc(CNC(=O)CN4CCNCC4)c3)ccc2=O)c1 [A144]	10 to 1000 nM
CCOC(=O)Nc1cccc(Cn2nc(-c3cccc(CNC(=O)CCN4CCNCC4)c3)ccc2=O)c1 [A145]	10 to 1000 nM
CCOC(=O)Nc1cccc(Cn2nc(-c3ccc(CC(=O)NCCCCN)cc3)ccc2=O)c1 [A146]	10 to 1000 nM
CCOC(=O)Nc1cccc(Cn2nc(-c3ccc(CC(=O)NCCN)cc3)ccc2=O)c1 [A147]	10 to 1000 nM
CCOC(=O)Nc1cccc(Cn2nc(-c3ccc(CC(=O)NCCCN)cc3)ccc2=O)c1 [A148]	10 to 1000 nM
CCOC(=O)Nc1cccc(Cn2nc(-c3ccc(-c4noc(C)n4)cc3)ccc2=O)c1 [A163, ethyl(3-{3-[4-(5-methyl-1,2,4-oxadiazol-3-yl)phenyl]-6-oxo-6H-pyridazin-1-ylmethyl}phenyl)carbamate]	10 to 1000 nM
CCOC(=O)Nc1cccc(Cn2nc(-c3ccc(CN(Cc4ncc[nH]4)Cc4ncc[nH]4)cc3)ccc2=O)c1 [A171, ethyl{3-[3-(4-{[bis(1H-imidazol-2-ylmethyl)amino]methyl}-phenyl)-6-oxo-6H-pyridazin-1-ylmethyl]phenyl}carbamate]	10 to 1000 nM
CCOC(=O)Nc1cccc(Cn2nc(-c3ccc(-c4nnn[nH]4)cc3)ccc2=O)c1 [A172, ethyl(3-{6-oxo-3-[4-(1H-tetrazol-5-yl)phenyl]-6H-pyridazin-1-ylmethyl}phenyl)carbamate]	10 to 1000 nM
